One series has as its system hRPC. Nature of the series: steroid toxicity test on hRPCs (CCK-8 cytotoxicity). The series is classed as cell-based, human. As to the method: The cells were also subjected to a steroid toxicity test, since steroids are often used in patients at the time of transplantation.
Cell Counting Kit-8 (CCK-8; Dojindo Molecular Technologies Inc., Gaithersburg, MD) was used to determine cytotoxicity of RPCs. The kit uses WST-8, which, upon bioreduction in the presence of the electron carrier 1-methoxy PMS, produces a water-soluble colored formazan. Ninety-six well plates containing 90 μl of cell suspension per well were inoculated with 10 μl of CCK-8 pre-packaged solution. The plates were incubator for 2 hours and the OD450 of the supernatant was measured. Each experiment was performed in quadruplicate on at least three separate experiments.

Another series concerns hRPCs. Nature of the series: hRPC culture medium and supplement comparison (yield, proliferation). The series is classed as cell-based, human. Conditions: supplement added to culture medium every two days.

On to `CC1(C)O[C@@H]2C[C@H]3[C@@H]4CCC5=CC(=O)C=C[C@]5(C)[C@@]4(F)[C@@H](O)C[C@]3(C)[C@]2(C(=O)CO)O1` [triamcinolone acetonide], for which the “effect on cell proliferation” value with hRPC (clinical doses) is “did not appear to affect cell proliferation”. Besides, in the series on hRPC (high doses (about >10 times the expected clinical dose)), the “effect on donor cell viability” value is reported as “may decrease donor cell viability”.
On to `O=C1O[C@H]([C@@H](O)CO)C(O)=C1O` [vitamin C], for which, in the series on hRPCs, the “improvement of hRPC yield” value was “approximately 30%”.
